Source: US8937056B2, “Multikinase inhibitors for use in the treatment of cancer” (Eisai R&D Management Co., Ltd., priority 2007, dated 2015)

Experiments:
Assay in all cases: Kinase inhibition, full range of concentrations
Type in all cases: biochemical
Conditions in all cases: 10 μM ATP, duplicate measurements
Lyn = Lyn (Homo sapiens, UniProt P07948)
Procedure: (§1) In a final reaction volume of 25 μL, each human enzyme was incubated with appropriate buffer. The reaction was initiated by the addition of the MgATP mix with [γ^33P-ATP]. After incubation for 40 minutes at room temperature, the reaction was stopped by the addition of 5 μL of a phosphoric acid solution. All assays were performed at an ATP concentration of 10 μM.
(§2) 10 μL of the reaction was spotted onto a P30 filtermat and washed three times for 5 minutes in a phosphoric acid solution. ^33P transferred to a substrate peptide was then determined by scintillation counting. The results were expressed as a percentage of that in control incubations.
(§3) Furthermore, inhibitory activities of the compounds were confirmed against six of these kinases with a full range of concentrations. Three cytoplasmic Src family kinases were studied: c-Src, Fyn and Lyn. We also studied cytoplasmic Abl kinase and two receptor tyrosine kinases: Flt3, and TrkB. A standard ATP concentration of 10 μM was used in all reactions. All experiments were conducted with duplicate measurements. […] TrkB and members of the Src family were the most sensitive enzymes to Compound 091 inhibition.

TrkB = TrkB (Homo sapiens, UniProt Q16620)
Procedure: as §1, §2, §3

Flt3 = target: T1, Flt3 (Homo sapiens, UniProt P36888)
T1 sequence (P36888 27-993): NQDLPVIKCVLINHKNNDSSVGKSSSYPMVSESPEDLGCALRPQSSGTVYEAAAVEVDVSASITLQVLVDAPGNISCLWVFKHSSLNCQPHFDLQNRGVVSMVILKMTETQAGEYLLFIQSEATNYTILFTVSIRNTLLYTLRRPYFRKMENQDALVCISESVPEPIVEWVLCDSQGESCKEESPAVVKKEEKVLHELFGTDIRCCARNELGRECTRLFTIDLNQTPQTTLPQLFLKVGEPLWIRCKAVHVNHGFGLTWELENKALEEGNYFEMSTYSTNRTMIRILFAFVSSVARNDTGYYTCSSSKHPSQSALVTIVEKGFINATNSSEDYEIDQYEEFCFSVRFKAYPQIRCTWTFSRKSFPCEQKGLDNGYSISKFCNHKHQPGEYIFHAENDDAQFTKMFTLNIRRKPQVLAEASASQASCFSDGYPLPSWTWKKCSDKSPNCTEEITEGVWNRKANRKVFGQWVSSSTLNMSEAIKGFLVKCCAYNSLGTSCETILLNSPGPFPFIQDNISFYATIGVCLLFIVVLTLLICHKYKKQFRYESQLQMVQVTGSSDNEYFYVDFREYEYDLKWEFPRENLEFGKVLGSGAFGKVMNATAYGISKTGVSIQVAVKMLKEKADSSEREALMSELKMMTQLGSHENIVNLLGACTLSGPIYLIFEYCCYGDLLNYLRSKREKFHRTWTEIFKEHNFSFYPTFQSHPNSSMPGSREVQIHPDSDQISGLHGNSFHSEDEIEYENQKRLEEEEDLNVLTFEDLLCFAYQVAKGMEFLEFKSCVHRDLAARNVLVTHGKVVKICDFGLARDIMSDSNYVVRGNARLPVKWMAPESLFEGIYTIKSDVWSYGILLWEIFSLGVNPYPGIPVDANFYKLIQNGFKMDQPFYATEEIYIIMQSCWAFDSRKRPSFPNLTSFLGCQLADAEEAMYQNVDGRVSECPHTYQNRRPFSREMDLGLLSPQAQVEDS
Procedure: as §1, §2, §3

c-Src = c-Src (Homo sapiens, UniProt P12931)
Procedure: as §1, §2, §3

Fyn = Fyn (Homo sapiens, UniProt P06241)
Procedure: as §1, §2, §3

Abl kinase = Abl kinase (Homo sapiens, UniProt P00519)
Procedure: as §1, §2, §3

Measured: IC50

Chain of c-Src (P12931 whole entry): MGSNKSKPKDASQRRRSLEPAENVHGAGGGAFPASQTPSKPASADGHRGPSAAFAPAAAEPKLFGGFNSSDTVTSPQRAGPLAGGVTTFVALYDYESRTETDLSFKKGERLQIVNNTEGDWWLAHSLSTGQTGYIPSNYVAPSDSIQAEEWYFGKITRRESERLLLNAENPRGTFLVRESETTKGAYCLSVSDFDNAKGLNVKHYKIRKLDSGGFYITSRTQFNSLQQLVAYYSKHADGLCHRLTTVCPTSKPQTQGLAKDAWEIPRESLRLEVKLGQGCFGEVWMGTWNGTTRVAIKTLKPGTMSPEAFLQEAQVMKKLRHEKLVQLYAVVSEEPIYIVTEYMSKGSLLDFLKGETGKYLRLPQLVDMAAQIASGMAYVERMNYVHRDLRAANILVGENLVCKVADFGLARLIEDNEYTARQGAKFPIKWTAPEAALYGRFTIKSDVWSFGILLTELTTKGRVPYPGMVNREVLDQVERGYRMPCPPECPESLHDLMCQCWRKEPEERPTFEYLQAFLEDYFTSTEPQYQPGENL
Chain of Abl kinase (P00519 whole entry): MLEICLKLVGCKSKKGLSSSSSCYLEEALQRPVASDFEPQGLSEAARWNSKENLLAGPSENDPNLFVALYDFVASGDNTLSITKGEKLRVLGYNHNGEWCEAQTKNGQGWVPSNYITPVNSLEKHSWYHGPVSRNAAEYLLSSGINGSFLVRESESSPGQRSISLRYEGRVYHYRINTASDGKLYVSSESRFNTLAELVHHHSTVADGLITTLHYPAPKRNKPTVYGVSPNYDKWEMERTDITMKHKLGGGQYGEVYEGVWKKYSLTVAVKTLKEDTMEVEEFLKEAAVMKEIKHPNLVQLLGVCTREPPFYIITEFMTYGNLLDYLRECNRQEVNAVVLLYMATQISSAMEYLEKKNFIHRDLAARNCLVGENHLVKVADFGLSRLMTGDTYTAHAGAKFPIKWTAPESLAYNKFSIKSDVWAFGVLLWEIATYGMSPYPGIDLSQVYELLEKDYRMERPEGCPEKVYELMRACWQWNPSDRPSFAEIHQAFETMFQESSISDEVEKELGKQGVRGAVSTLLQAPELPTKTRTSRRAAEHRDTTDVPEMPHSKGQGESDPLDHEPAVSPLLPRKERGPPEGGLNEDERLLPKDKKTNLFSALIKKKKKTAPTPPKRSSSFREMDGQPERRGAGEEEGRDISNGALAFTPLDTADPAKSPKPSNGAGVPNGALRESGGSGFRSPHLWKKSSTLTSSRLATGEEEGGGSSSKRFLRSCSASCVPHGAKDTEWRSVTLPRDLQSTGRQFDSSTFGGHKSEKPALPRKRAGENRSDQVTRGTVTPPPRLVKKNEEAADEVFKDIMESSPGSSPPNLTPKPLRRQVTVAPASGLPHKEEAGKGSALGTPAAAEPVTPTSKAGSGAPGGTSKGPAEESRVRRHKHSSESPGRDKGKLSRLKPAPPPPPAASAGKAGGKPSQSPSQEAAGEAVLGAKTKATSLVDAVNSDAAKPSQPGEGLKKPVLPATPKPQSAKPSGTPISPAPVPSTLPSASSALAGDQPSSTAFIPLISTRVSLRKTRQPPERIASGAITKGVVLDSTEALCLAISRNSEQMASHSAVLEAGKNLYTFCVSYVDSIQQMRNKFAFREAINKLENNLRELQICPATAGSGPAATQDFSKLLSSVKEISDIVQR
Chain of Fyn (P06241 whole entry): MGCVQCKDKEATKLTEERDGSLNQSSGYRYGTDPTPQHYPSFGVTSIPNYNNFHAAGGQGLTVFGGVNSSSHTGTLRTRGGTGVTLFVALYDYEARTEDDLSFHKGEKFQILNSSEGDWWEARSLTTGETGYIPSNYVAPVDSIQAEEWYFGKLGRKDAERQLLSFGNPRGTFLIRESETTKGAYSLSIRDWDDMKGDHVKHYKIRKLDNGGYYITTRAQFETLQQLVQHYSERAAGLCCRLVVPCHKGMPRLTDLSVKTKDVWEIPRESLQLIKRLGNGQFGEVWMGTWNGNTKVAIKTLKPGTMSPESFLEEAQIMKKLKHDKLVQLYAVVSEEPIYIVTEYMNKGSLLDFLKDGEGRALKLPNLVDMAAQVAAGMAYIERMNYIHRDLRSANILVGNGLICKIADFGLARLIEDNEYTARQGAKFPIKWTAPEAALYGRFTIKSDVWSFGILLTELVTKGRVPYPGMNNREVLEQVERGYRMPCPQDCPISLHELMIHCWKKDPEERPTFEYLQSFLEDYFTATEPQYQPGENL
Chain of TrkB (Q16620 32-822): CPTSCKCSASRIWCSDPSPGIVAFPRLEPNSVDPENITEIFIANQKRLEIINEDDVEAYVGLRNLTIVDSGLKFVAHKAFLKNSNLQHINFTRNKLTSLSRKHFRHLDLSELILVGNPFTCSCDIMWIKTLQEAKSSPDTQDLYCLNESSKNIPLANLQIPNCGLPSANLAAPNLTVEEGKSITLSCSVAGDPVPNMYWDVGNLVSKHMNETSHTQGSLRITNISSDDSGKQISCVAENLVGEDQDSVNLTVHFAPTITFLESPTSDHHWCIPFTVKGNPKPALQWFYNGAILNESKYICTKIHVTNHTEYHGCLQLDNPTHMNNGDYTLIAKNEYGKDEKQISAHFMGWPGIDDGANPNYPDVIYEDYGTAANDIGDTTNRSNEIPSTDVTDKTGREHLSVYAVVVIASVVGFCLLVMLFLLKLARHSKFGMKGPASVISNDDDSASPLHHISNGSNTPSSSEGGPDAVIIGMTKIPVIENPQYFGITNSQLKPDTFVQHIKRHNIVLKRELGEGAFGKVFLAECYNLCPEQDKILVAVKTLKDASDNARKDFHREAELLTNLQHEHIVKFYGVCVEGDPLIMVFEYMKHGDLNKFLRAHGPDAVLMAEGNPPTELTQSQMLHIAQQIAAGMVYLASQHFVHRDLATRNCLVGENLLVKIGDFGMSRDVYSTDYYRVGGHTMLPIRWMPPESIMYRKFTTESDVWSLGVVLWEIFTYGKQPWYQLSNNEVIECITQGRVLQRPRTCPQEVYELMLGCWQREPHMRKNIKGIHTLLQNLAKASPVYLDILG
Chain of Lyn (P07948 whole entry): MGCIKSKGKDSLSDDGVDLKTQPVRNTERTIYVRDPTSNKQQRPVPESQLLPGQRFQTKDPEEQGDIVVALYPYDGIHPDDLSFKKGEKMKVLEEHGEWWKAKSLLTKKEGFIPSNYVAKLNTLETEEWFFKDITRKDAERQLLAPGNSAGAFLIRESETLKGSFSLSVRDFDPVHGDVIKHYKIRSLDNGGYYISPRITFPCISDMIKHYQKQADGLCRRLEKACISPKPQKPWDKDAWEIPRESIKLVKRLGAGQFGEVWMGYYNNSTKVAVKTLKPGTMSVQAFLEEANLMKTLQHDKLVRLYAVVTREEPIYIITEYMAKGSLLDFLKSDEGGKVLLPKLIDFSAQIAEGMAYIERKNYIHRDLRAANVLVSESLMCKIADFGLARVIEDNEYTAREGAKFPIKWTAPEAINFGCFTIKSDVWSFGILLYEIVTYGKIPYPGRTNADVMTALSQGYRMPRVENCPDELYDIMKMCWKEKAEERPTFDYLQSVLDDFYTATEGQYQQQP

CNc1cc(O)c2c(c1)/C=C/C[C@H](O)[C@H](O)C(=O)/C=C\[C@@H](C)[C@H](C)OC2=O [Compound 091]
< 214 nM: all assays above
